According to US20160272617A1, “SUBSTITUTED PHENYLALANINE DERIVATIVES” (BAYER PHARMA AKTIENGESELLSCHAFT, priority 2013, published 2016):
Counter-ions that a name gives are not always drawn.

Assays:
[1] = test system: human and animal plasma; assay: Determination of anticoagulatory activity: activated partial thromboplastin time (aPTT) in plasma; conditions: concentration of test substance which brings about a 1.5-fold extension of the aPTT; plasma species not given
Outline: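 Citrated plasma (1:9, 0.11 M citrate; 4000 g, 15 min) from human or animal blood incubated with test compound and cephalin/kaolin PTT reagent for 3 min at 37° C.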

[2] = molecular target: T1, human factor XIa (Homo sapiens, UniProt P03951); assay: Measurement of FXIa inhibition (fluorogenic peptide substrate Boc-Glu(OBzl)-Ala-Arg-AMC); assay type: biochemical; conditions: factor XIa from Kordia, 15 min preincubation, 30 min at 22° C., fluorescence
T1 construct: purchased Kordia
Outline: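 Released AMC fluorescence (360/460 nm) read after 30 min at 22 °C. The reaction was started with Boc-Glu(OBzl)-Ala-Arg-AMC (10 μM stock) after a 15 min preincubation of the enzyme (0.45 nM stock) with compound (final 50 μM to 0.00013 μM).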

T1 sequence (P03951 388-625 limits assumed): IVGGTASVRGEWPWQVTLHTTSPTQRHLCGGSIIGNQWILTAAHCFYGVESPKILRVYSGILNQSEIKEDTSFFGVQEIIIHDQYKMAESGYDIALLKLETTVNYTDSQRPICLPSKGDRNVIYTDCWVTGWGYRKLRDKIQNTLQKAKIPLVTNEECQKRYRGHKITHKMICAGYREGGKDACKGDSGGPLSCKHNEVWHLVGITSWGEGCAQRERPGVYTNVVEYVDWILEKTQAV
T1 sequence (P03951 19-387 partner limits assumed): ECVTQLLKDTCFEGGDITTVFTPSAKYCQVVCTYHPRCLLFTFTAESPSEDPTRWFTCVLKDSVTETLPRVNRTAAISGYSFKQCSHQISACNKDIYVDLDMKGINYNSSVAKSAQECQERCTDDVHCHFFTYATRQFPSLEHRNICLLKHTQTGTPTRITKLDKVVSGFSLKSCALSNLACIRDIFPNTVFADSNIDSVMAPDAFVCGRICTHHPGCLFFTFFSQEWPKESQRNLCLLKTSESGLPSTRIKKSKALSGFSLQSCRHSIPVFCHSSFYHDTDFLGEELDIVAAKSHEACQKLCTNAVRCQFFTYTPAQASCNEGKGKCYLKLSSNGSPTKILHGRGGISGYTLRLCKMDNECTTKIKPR

| Structure (SMILES) | aPTT [1] | IC50 [2] |
| --- | --- | --- |
| Cc1cc(C(=O)NC2CCC(N(C)Cc3ccccc3)CC2)ccc1-c1ccc(C[C@H](NC(=O)[C@H]2CC[C@H](CN)CC2)C(=O)Nc2ccc(-c3nnn[nH]3)cc2)cc1 (stereo partly drawn) [Example 146, 4′-[(2S)-2-({[trans-4-(Aminomethyl)cyclohexyl]carbonyl}amino)-3-oxo-3-{[4-(1H-tetrazol-5-yl)phenyl]amino}propyl]-N-{4-[benzyl(methyl)amino]cyclohexyl}-2-methylbiphenyl-4-carboxamide hydrochloride] | 0.07 µmol/L | 1.8 nM |
| Cc1cc(C(=O)NC2CCNCC2)ccc1-c1ccc(C[C@H](NC(=O)[C@H]2CC[C@H](CN)CC2)C(=O)Nc2ccc(-c3nc(C(F)(F)C(F)(F)C(=O)O)n[nH]3)cc2)cc1 [Example 98, 3-{(5-[4-({(2S)-2-({[trans-4-(Aminomethyl)cyclohexyl]carbonyl}amino)-3-[2′-methyl-4′-(piperidin-4-ylcarbamoyl)biphenyl-4-yl]propanoyl}amino)phenyl]-1H-1,2,4-triazol-3-yl}-2,2,3,3-tetrafluoropropanoic acid hydrochloride] | 0.06 µmol/L | 1 nM |
| Cc1cc(C(=O)NCCO)ccc1-c1ccc(C[C@H](NC(=O)[C@H]2CC[C@H](CN)CC2)C(=O)Nc2ccc3cn[nH]c3c2)cc1 [Example 17, 4′-[(2S)-2-({[trans-4-(Aminomethyl)cyclohexyl]carbonyl}amino)-3-(1H-indazol-6-ylamino)-3-oxopropyl]-N-(2-hydroxyethyl)-2-methylbiphenyl-4-carboxamide hydrochloride] | 0.35 µmol/L | 6.1 nM |
| Cc1cc(C(=O)N[C@@H]2CCCNC2=O)ccc1-c1ccc(C[C@H](NC(=O)[C@H]2CC[C@H](CN)CC2)C(=O)Nc2ccc(-c3nnc(C(F)(F)C(F)(F)C(=O)O)[nH]3)cc2)cc1 [Example 166, 3-[5-(4-{[(2S)-2-({[trans-4-(Aminomethyl)cyclohexyl]carbonyl}amino)-3-(2′-methyl-4′-{[(3R)-2-oxopiperidin-3-yl]carbamoyl}biphenyl-4-yl)propanoyl]amino}phenyl)-4H-1,2,4-triazol-3-yl]-2,2,3,3-tetrafluoropropanoic acid hydrochloride] | 0.09 µmol/L | 0.8 nM |
| Cc1cc(C(=O)NC2CCNCC2)ccc1-c1ccc(C[C@H](NC(=O)[C@H]2CC[C@H](CN)CC2)C(=O)Nc2ccc(-c3c[nH]cn3)cc2)cc1 [Example 84, 4′-[(2S)-2-({[trans-4-(Aminomethyl)cyclohexyl]carbonyl}amino)-3-{[4-(1H-imidazol-4-yl)phenyl]amino}-3-oxopropyl]-2-methyl-N-(piperidin-4-yl)biphenyl-4-carboxamide hydrochloride] | 0.3 µmol/L | 18 nM |
| COc1cc(C(=O)NC2CCN(C)CC2)cc(OC)c1-c1ccc(C[C@H](NC(=O)[C@H]2CC[C@H](CN)CC2)C(=O)Nc2ccc(-c3nn[nH]n3)cc2)cc1 [Example 117, 4′-[(2S)-2-({[trans-4-(Aminomethyl)cyclohexyl]carbonyl}amino)-3-oxo-3-{[4-(2H-tetrazol-5-yl)phenyl]amino}propyl]-2,6-dimethoxy-N-(1-methylpiperidin-4-yl)biphenyl-4-carboxamide hydrochloride] | 0.18 µmol/L | 8.9 nM |
| Cc1nc2ccc(NC(=O)[C@H](Cc3ccc(-c4ccc(C(=O)NC5CCNCC5)cc4C)cc3)NC(=O)[C@H]3CC[C@H](CN)CC3)cc2[nH]1 [Example 50, 4′-{(2S)-2-({[trans-4-(Aminomethyl)cyclohexyl]carbonyl}amino)-3-[(2-methyl-1H-benzimidazol-6-yl)amino]-3-oxopropyl}-2-methyl-N-(piperidin-4-yl)biphenyl-4-carboxamide hydrochloride] | 0.16 µmol/L | 8.3 nM |
| NC[C@H]1CC[C@H](C(=O)N[C@@H](Cc2ccc(-c3ccc(C(=O)N[C@@H]4CCCNC4=O)c(F)c3)cc2)C(=O)Nc2ccc(-c3n[nH]c(C(F)(F)C(F)(F)C(=O)O)n3)cc2)CC1 [Example 111, 3-[3-(4-{[(2S)-2-({[trans-4-(Aminomethyl)cyclohexyl]carbonyl}amino)-3-(3′-fluoro-4′-{[(3R)-2-oxopiperidin-3-yl]carbamoyl}biphenyl-4-yl)propanoyl]amino}phenyl)-1H-1,2,4-triazol-5-yl]-2,2,3,3-tetrafluoropropanoic acid hydrochloride] | 0.13 µmol/L | 1 nM |
| CCN(CC)C1CCC(NC(=O)c2ccc(-c3ccc(C[C@H](NC(=O)[C@H]4CC[C@H](CN)CC4)C(=O)Nc4ccc5c(Cl)n[nH]c5c4)cc3)c(C)c2)CC1 (stereo partly drawn) [Example 94, 4′-{(2S)-2-({[trans-4-(Aminomethyl)cyclohexyl]carbonyl}amino)-3-[(3-chloro-1H-indazol-6-yl)amino]-3-oxopropyl}-N-[4-(diethylamino)cyclohexyl]-2-methylbiphenyl-4-carboxamide hydrochloride] | 0.23 µmol/L | 9.2 nM |
| Cc1cc(C(=O)NC2CCNC(C)C2)ccc1-c1ccc(C[C@H](NC(=O)[C@H]2CC[C@H](CN)CC2)C(=O)Nc2ccc(-c3nn[nH]n3)cc2)cc1 (stereo partly drawn) [Example 32, 4′-[(2S)-2-({[trans-4-(Aminomethyl)cyclohexyl]carbonyl}amino)-3-oxo-3-{[4-(2H-tetrazol-5-yl)phenyl]amino}propyl]-2-methyl-N-(2-methylpiperidin-4-yl)biphenyl-4-carboxamide hydrochloride] | 0.09 µmol/L | 3.4 nM |
| Cc1cc(C(=O)NC2CCN(C)CC2)ccc1-c1ccc(C[C@H](NC(=O)[C@H]2CC[C@H](CN)CC2)C(=O)Nc2ccc(-c3nc(C(F)(F)C(F)(F)CO)n[nH]3)cc2)cc1 [Example 109, 4′-[(2S)-2-({[trans-4-(Aminomethyl)cyclohexyl]carbonyl}amino)-3-oxo-3-({4-[3-(1,1,2,2-tetrafluoro-3-hydroxypropyl)-1H-1,2,4-triazol-5-yl]phenyl}amino)propyl]-2-methyl-N-(1-methylpiperidin-4-yl)biphenyl-4-carboxamide hydrochloride] | 0.11 µmol/L | 3 nM |
| Cc1cc(C(=O)NC2CCCNC2=O)ccc1-c1ccc(C[C@H](NC(=O)[C@H]2CC[C@H](CN)CC2)C(=O)Nc2ccc(-c3nc(C(F)(F)C(F)(F)C(F)(F)F)n[nH]3)cc2)cc1 (stereo partly drawn) [Example 88, 4′-[(2S)-2-({[trans-4-(Aminomethyl)cyclohexyl]carbonyl}amino)-3-({4-[3-(heptafluoropropyl)-1H-1,2,4-triazol-5-yl]phenyl}amino)-3-oxopropyl]-2-methyl-N-(2-oxopiperidin-3-yl)biphenyl-4-carboxamide hydrochloride] | 0.31 µmol/L | 2.1 nM |
| Cc1cc(C(=O)N[C@H]2CC[C@H](O)CC2)ccc1-c1ccc(CC(NC(=O)[C@H]2CC[C@H](CN)CC2)C(=O)Nc2ccc(-c3nnc(C(F)(F)C(F)(F)C(=O)O)[nH]3)cc2)cc1 (mixture of isomers) [Example 103, 3-[5-(4-{[2-({[trans-4-(Aminomethyl)cyclohexyl]carbonyl}amino)-3-{4′-[(trans-4-hydroxycyclohexyl)carbamoyl]-2′-methylbiphenyl-4-yl}propanoyl]amino}phenyl)-4H-1,2,4-triazol-3-yl]-2,2,3,3-tetrafluoropropanoic acid hydrochloride (enantiomer mixture)] | 0.1 µmol/L | 1.1 nM |
| Cc1cc(C(=O)N2CCNCC2)ccc1-c1ccc(C[C@H](NC(=O)[C@H]2CC[C@H](CN)CC2)C(=O)Nc2ccc(-c3nn[nH]n3)cc2)cc1 [Example 16, trans-4-(Aminomethyl)-N-[(2S)-3-[2′-methyl-4′-(piperazin-1-ylcarbonyl)biphenyl-4-yl]-1-oxo-1-{[4-(2H-tetrazol-5-yl)phenyl]amino}propan-2-yl]cyclohexanecarboxamide hydrochloride] | 0.23 µmol/L | 3.9 nM |
| CNC1CCC(NC(=O)c2ccc(-c3ccc(C[C@H](NC(=O)[C@H]4CC[C@H](CN)CC4)C(=O)Nc4ccc(-c5nnn[nH]5)cc4)cc3)c(C)c2)CC1 (stereo partly drawn) [Example 147, 4′-[(2S)-2-({[trans-4-(Aminomethyl)cyclohexyl]carbonyl}amino)-3-oxo-3-{[4-(1H-tetrazol-5-yl)phenyl]amino}propyl]-2-methyl-N-[4-(methylamino)cyclohexyl]biphenyl-4-carboxamide hydrochloride] | 0.01 µmol/L | 1.7 nM |
| CCN(CC)CCNC(=O)c1ccc(-c2ccc(C[C@H](NC(=O)[C@H]3CC[C@H](CN)CC3)C(=O)Nc3ccc(-c4nn[nH]n4)cc3)cc2)c(C)c1.Cl [Example 2, 4′-[(2S)-2-({[trans-4-(Aminomethyl)cyclohexyl]carbonyl}amino)-3-oxo-3-{[4-(2H-tetrazol-5-yl)phenyl]amino}propyl]-N-[2-(diethylamino)ethyl]-2-methylbiphenyl-4-carboxamide hydrochloride] | 0.14 µmol/L | 4.9 nM |
| Cc1cc(C(=O)NC2CCNCC2)ccc1-c1ccc(C[C@H](NC(=O)[C@H]2CC[C@H](CN)CC2)C(=O)Nc2ccc3[nH]c(-c4ccccn4)nc3c2)cc1 [Example 51, 4′-[(2S)-2-({[trans-4-(Aminomethyl)cyclohexyl]carbonyl}amino)-3-oxo-3-{[2-(pyridin-2-yl)-1H-benzimidazol-5-yl]amino}propyl]-2-methyl-N-(piperidin-4-yl)biphenyl-4-carboxamide hydrochloride] | 0.44 µmol/L | 11 nM |
| NC[C@H]1CC[C@H](C(=O)N[C@@H](Cc2ccc(-c3ccc(C(=O)NC4CCNCC4)cc3)cc2)C(=O)Nc2ccc(-c3nn[nH]n3)cc2)CC1 [Example 37, 4′-[(2S)-2-({[trans-4-(Aminomethyl)cyclohexyl]carbonyl}amino)-3-oxo-3-{[4-(2H-tetrazol-5-yl)phenyl]amino}propyl]-N-(piperidin-4-yl)biphenyl-4-carboxamide hydrochloride] | 0.12 µmol/L | 8.5 nM |
